Tested on: strains of Enterobacteriaceae producing various carbapenemases (class A, D and B; 104 strains)
Assay: Antibiotics potentiation by Compound 27 (MIC; meropenem, doripenem, ertapenem, cefepime)
Type: cell-based
Details: + 27 = with Compound 27 at fixed 4 μg/ml

SMILES: C[C@@H](O)[C@H]1C(=O)N2C(C(=O)O)=C(S[C@@H]3CN[C@H](C(=O)N(C)C)C3)[C@H](C)[C@H]12 [M]
- MIC (strain CF1012 Citrobacter freundii (KPC-2)): Y (MIC of 1 μg/mL to 10 μg/mL)
- MIC (strain CF1021 Citrobacter freundii (CMY-type; VIM-1)): Y (MIC of 1 μg/mL to 10 μg/mL)
- MIC (strain CF1022 Citrobacter freundii (SHV-12(2be), TEM-OSBL(2b); IMP-8)): Y (MIC of 1 μg/mL to 10 μg/mL)
- MIC (strain CF1023 Citrobacter freundii (SHV-12(2be), TEM-OSBL(2b); CTX-M-3; CMY-34; NDM-1)): Z (MIC of greater than 10 μg/mL)
- MIC (strain CL1080 Enterobacter cloacae (IMP-1)): Y (MIC of 1 μg/mL to 10 μg/mL)
- MIC (strain EA1019 Enterobacter aerogenes (SHV-5, VIM-1)): Z (MIC of greater than 10 μg/mL)
- MIC (strain EC1007 Escherichia coli (KPC-3)): X (MIC of less than 1 μg/mL)
- MIC (strain EC1061 Escherichia coli (NDM-1, CMY-6)): Z (MIC of greater than 10 μg/mL)
- MIC (strain EC1062 Escherichia coli (OXA-48, CTX-M-15)): X (MIC of less than 1 μg/mL)
- MIC (strain EC1064 Escherichia coli (NDM-1, CMY-6, CTX-M-15)): Z (MIC of greater than 10 μg/mL)
- MIC (strain EC1065 Escherichia coli (IMP-1)): Y (MIC of 1 μg/mL to 10 μg/mL)
- MIC (strain EC1068 Escherichia coli (VIM-1)): Z (MIC of greater than 10 μg/mL)
- MIC (strain EC1069 Escherichia coli (CTX-M-27; NDM-1)): Z (MIC of greater than 10 μg/mL)
- MIC (strain EC1070 Escherichia coli (TEM-OSBL(2b); CMY-42; NDM-5)): Z (MIC of greater than 10 μg/mL)
- MIC (strain EC1072 Escherichia coli (CTX-M-3; NDM-1)): Z (MIC of greater than 10 μg/mL)
- MIC (strain ECL1004 Enterobacter cloacae (NMC-A)): Y (MIC of 1 μg/mL to 10 μg/mL)
- MIC (strain ECL1026 Enterobacter cloacae (KPC-2, TEM-1)): Y (MIC of 1 μg/mL to 10 μg/mL)
- MIC (strain ECL1036 Enterobacter cloacae (KPC-3, TEM-1)): Y (MIC of 1 μg/mL to 10 μg/mL)
- MIC (strain ECL1045 Enterobacter cloacae (VIM-1)): Y (MIC of 1 μg/mL to 10 μg/mL)
- MIC (strain ECL1055 Enterobacter cloacae (KPC-3, TEM)): Y (MIC of 1 μg/mL to 10 μg/mL)
- MIC (strain ECL1057 Enterobacter cloacae (NDM-1, TEM-1, CTX-M-15)): Z (MIC of greater than 10 μg/mL)
- MIC (strain ECL1058 Enterobacter cloacae (KPC-3, SHV-11, TEM-1)): Z (MIC of greater than 10 μg/mL)
- MIC (strain ECL1059 Enterobacter cloacae (KPC-3, SHV-12, TEM-1)): Y (MIC of 1 μg/mL to 10 μg/mL)
- MIC (strain ECL1061 Enterobacter cloacae (KPC-3, Hyper AmpC expression)): Z (MIC of greater than 10 μg/mL)
- MIC (strain ECL1082 Enterobacter cloacae (VIM-1)): Z (MIC of greater than 10 μg/mL)
- MIC (strain ECL1084 Enterobacter cloacae (CTX-M-15; ACT-16; NDM-1)): Z (MIC of greater than 10 μg/mL)
- MIC (strain ECL1085 Enterobacter cloacae (SHV-31(2be), TEM-1(2b); CTX-M-15; NDM-1)): Z (MIC of greater than 10 μg/mL)
- MIC (strain ECL1086 Enterobacter cloacae (VIM-31, OXA-48(c))): Y (MIC of 1 μg/mL to 10 μg/mL)
- MIC (strain ECL1087 Enterobacter cloacae (VIM-1)): Z (MIC of greater than 10 μg/mL)
- MIC (strain ECL1088 Enterobacter cloacae (TEM-1(2b); CTX-M-14; ACT-type; VIM-1)): Z (MIC of greater than 10 μg/mL)
- MIC (strain ECL1089 Enterobacter cloacae (ACT-type; IMP-1)): Z (MIC of greater than 10 μg/mL)
- MIC (strain ECL1090 Enterobacter cloacae (TEM-1(2b); CTX-M-22; ACT-type; IMP-8)): Y (MIC of 1 μg/mL to 10 μg/mL)
- MIC (strain ECL1091 Enterobacter cloacae (VIM-1)): Z (MIC of greater than 10 μg/mL)
- MIC (strain ECL1092 Enterobacter cloacae (TEM-OSBL(2b); ACT-32; VIM-1)): Y (MIC of 1 μg/mL to 10 μg/mL)
- MIC (strain ECL1093 Enterobacter cloacae (TEM-OSBL(2b); ACT-32; VIM-1)): Y (MIC of 1 μg/mL to 10 μg/mL)
- MIC (strain ECL1094 Enterobacter cloacae (VIM-1)): Z (MIC of greater than 10 μg/mL)
- MIC (strain ECL1096 Enterobacter cloacae (CMY-4, VIM-4, OXA-48(c))): Y (MIC of 1 μg/mL to 10 μg/mL)
- MIC (strain ECL1097 Enterobacter cloacae (SHV-31(2be), TEM-OSBL(2b); CTX-M-15; ACT-31; NDM-1)): Z (MIC of greater than 10 μg/mL)
- MIC (strain ECL1098 Enterobacter cloacae (TEM-OSBL(2b); DHA-1; ACT-16; NDM-1)): Z (MIC of greater than 10 μg/mL)
- MIC (strain KP1001 Klebsiella pneumoniae (KPC TEM SHV)): Z (MIC of greater than 10 μg/mL)
- MIC (strain KP1002 Klebsiella pneumoniae (KPC TEM SHV)): Y (MIC of 1 μg/mL to 10 μg/mL)
- MIC (strain KP1003 Klebsiella pneumoniae (KPC TEM SHV)): Y (MIC of 1 μg/mL to 10 μg/mL)
- MIC (strain KP1004 Klebsiella pneumoniae (KPC-2, TEM-1, SHV-11)): Z (MIC of greater than 10 μg/mL)
- MIC (strain KP1008 Klebsiella pneumoniae (KPC-2)): Y (MIC of 1 μg/mL to 10 μg/mL)
- MIC (strain KP1014 Klebsiella pneumoniae (VIM-1, TEM, SHV)): Y (MIC of 1 μg/mL to 10 μg/mL)
- MIC (strain KP1054 Klebsiella pneumoniae (VIM-1, SHV-11)): Z (MIC of greater than 10 μg/mL)
- MIC (strain KP1059 Klebsiella pneumoniae (VIM-1, SHV-11)): Z (MIC of greater than 10 μg/mL)
- MIC (strain KP1061 Klebsiella pneumoniae (KPC-3, SHV-11, TEM-1)): Z (MIC of greater than 10 μg/mL)
- MIC (strain KP1064 Klebsiella pneumoniae (KPC-2, SHV-11, TEM-1)): Z (MIC of greater than 10 μg/mL)
- MIC (strain KP1065 Klebsiella pneumoniae (VIM-1, SHV-11)): Y (MIC of 1 μg/mL to 10 μg/mL)
- MIC (strain KP1070 Klebsiella pneumoniae (KPC-2, SHV-11, TEM-1)): Z (MIC of greater than 10 μg/mL)
- MIC (strain KP1074 Klebsiella pneumoniae (KPC-3, SHV-11, TEM)): Z (MIC of greater than 10 μg/mL)

Source: patent publication US10206937B2, “Boronic acid derivatives and therapeutic uses thereof” (Qpex Biopharma, Inc., priority 2014, dated 2019)
